Laboratory results as given in patent US11268145B2, “Methods for treating Cushing's syndrome” (priority 2015, dated 2022).

System: FKBP5 gene expression
Assay: FKBP5 gene expression in whole blood of healthy subjects after GR agonist, with or without GRA
Format: in vivo, human
Settings: GAPDH normalized
Protocol: FIG. 1: depicts a study scheme for examining the expression level of the gene FKBP5, which encodes the FKBP5 protein, in response to administration of a GR modulator. In this scheme, healthy subjects are administered a GR agonist, followed by co-administration of a GR agonist and a GR antagonist (GRA). Blood samples are obtained from 10 subjects before each dose and at various time points after each dose. FKBP5 expression levels are measured before dosing on each day, and at selected times after dosing on each day.
Blood samples are taken before each dose and at various time-points after each dose. The study scheme is depicted in FIG. 1. The expression level of the FKBP5 gene is measured in the pre-administration samples obtained before dosing on each day and in the post-administration samples obtained at various time points after dosing on each day. Raw expression level data in the samples are normalized against the expression level of the glyceraldehyde phosphate dehydrogenase (GAPDH) gene in each sample.

## CC#C[C@]1(O)CC[C@H]2[C@@H]3CCC4=CC(=O)CCC4=C3[C@@H](c3ccc(N(C)C)cc3)C[C@@]21C [mifepristone]
Prednisone 25 mg with mifepristone 600 mg
  change in the fold change in FKBP5 expression: significant decrease

## Cn1cc(S(=O)(=O)N2CCC3=Cc4c(cnn4-c4ccc(F)cc4)C[C@]3(C(=O)c3cc(C(F)(F)F)ccn3)C2)cn1 [CORT125134]
Prednisone 25 mg with CORT125134 500 mg
  change in the fold change in FKBP5 expression: significant decrease
